Earlier results on one molecule are cited in paper PMC3792642 (Acta Crystallographica Section D: Biological Crystallography, 2013).

The test system of data set [1] is Mtb. The following applies: VKOR-dependent manner; ref Dutton et al., 2010; cited from earlier work.
Data set [2] relates to MtbVKOR. Conditions: ref Dutton et al., 2010; cited from earlier work.

Consider `CC(=O)CC(c1ccccc1)c1c(O)c2ccccc2oc1=O` (centres unmarked) [warfarin], for which the “Inhibition of growth of Mtb” value in data set [1] is “inhibit growth of Mtb”. Besides, the “Inhibition of MtbVKOR” value in data set [2] is recorded as “inhibit MtbVKOR”.
